From patent publication US7981904B2, “Acetyl CoA carboxylase inhibitors” (Takeda Pharmaceutical Company Limited, priority 2008, dated 2011)

Experiments:
Human ACC1 = target: T1, Human ACC1 (Homo sapiens, UniProt Q13085); assay: in vitro enzymatic ACC activity assay (malachite green, absorbance at 620 nm), ACC1; assay type: biochemical; conditions: recombinant His-tagged human ACC1, 8 μg/mL; 60 min preincubation, 20 min reaction at 30° C.
T1 construct: made in house; host or cells: SF-9 insect cells (baculovirus, pFAST-BacHTc)
Description: (§1) Provided in Example A is an in vitro enzymatic ACC activity assay for activity against ACC. The binding affinity of the test compound to ACC1 or ACC2 is determined by the changes in absorbance (at 620 nm); […]. It should be noted that a variety of other expression systems and hosts are also suitable for the expression of ACC, as would be readily appreciated by one of skill in the art.
A. Purification of Human ACC1
Human ACC1 cDNA was amplified from human liver cDNA by polymerase chain reaction using primers; 5′[…]3′ (SEQ ID NO. 1) and 5′[…]3′ (SEQ ID NO: 2). The amplified DNA fragment was digested by restriction enzyme SalI and NotI, and cloned into pFAST-BacHTc (Invitrogen). This plasmid DNA was used for preparation of recombinant vaculovirus with BAC-TO-BAC Baculovirus Expression System (Invitrogen).
SF-9 cells were infected with the vaculovirus and cultured at 27° C. for 3 days. Harvested cells were homogenized in buffer A (25 mM HEPES (pH7.5), 130 mM NaCl, 1 mM EDTA, 25 mM sodium glycerophosphate, 1 mM sodium orthovanadate, 10% glycerol, complete protease inhibitor), and subjected to ultracentrifuge at 185700×g for 50 min at 4° C. ACC1 protein with 6×His-tag at the N-terminal was purified from the supernatant using Ni-NTA Super Flow Gel (QIAGEN). Eluted protein was dialysed against buffer B (50 mM HEPES (pH 7.5), 300 mM NaCl, 10 mM MgCl2, 10 mM tripotassium citrate, 2 mM dithiothreitol) and concentrated using Vivaspin20 ultrafiltration tube (Sartorius).
(§2) C. Measurement of ACC Activity
(§3) Malachite green solution was prepared by mixing 100 mL of solution A (0.12% malachite green in 5N H2SO4), 25 mL of solution B (7.5% ammonium molybdate) and 2 mL of solution C (11% TWEEN-20).
(§4) ACC1 was diluted to 8 μg/mL in reaction buffer (50 mM HEPES pH7.5, 10 mM MgCl2, 10 mM tripotassium citrate, 2 mM DTT, 0.75 mg/mL fatty acid free BSA) and 10 μL diluted enzyme solution was pored into each well of 384-well clear bottom plate. Test compound was diluted in the reaction buffer and 5 μL of the compound solution was added into each well, and the mixture was incubated at 30° C. for 60 minutes. Reaction was initiated by addition of 5 μL substrate solution (50 mM KHCO3, 200 μM ATP, 200 μM acetyl-CoA). After incubation at 30° C. for 20 minutes, reaction was terminated by addition of 5 μL malachite green solution and absorbance at 620 nm was measured.
(§5) Percent activity at each concentration of compound was calculated from the following equation:
(§6) [formula] where Abs is absorbance, Avg is average.
(§7) Data were subjected to nonlinear regression analysis using GraphPad Prism Software (GraphPad Software Inc.) to obtain IC50 values.

Human ACC2 = target: T2, Human ACC2 (Homo sapiens, UniProt O00763); assay: in vitro enzymatic ACC activity assay (malachite green, absorbance at 620 nm), ACC2; assay type: biochemical; conditions: recombinant His-tagged human ACC2, 6.4 μg/mL; same method as ACC1
T2 construct: made in house; host or cells: SF-9 insect cells (baculovirus, pFAST-BacHTa)
Description: as §1
B. Purification of Human ACC2
Human ACC2 cDNA except coding region for mitochondria localization sequence was amplified from human skeletal muscle cDNA by polymerase chain reaction using primers; 5′[…]3′ (SEQ ID NO: 3) and 5′[…]3′ (SEQ ID NO: 4). The amplified DNA fragment was digested by SalI and AflIII, and cloned into pFAST-BacHTa (Invitrogen). Preparation of recombinant vaculovirus, infection of the virus to SF-9 cells and purification of recombinant ACC2 protein with 6×His-tag at the N-terminal were performed in the same method as described above.
as §2, §3, §4
ACC2 was diluted to 6.4 μg/mL in reaction buffer, and the activity was measured by the same method as described for ACC1.
as §5, §6, §7

T2 sequence (O00763 117-2458 limits assumed): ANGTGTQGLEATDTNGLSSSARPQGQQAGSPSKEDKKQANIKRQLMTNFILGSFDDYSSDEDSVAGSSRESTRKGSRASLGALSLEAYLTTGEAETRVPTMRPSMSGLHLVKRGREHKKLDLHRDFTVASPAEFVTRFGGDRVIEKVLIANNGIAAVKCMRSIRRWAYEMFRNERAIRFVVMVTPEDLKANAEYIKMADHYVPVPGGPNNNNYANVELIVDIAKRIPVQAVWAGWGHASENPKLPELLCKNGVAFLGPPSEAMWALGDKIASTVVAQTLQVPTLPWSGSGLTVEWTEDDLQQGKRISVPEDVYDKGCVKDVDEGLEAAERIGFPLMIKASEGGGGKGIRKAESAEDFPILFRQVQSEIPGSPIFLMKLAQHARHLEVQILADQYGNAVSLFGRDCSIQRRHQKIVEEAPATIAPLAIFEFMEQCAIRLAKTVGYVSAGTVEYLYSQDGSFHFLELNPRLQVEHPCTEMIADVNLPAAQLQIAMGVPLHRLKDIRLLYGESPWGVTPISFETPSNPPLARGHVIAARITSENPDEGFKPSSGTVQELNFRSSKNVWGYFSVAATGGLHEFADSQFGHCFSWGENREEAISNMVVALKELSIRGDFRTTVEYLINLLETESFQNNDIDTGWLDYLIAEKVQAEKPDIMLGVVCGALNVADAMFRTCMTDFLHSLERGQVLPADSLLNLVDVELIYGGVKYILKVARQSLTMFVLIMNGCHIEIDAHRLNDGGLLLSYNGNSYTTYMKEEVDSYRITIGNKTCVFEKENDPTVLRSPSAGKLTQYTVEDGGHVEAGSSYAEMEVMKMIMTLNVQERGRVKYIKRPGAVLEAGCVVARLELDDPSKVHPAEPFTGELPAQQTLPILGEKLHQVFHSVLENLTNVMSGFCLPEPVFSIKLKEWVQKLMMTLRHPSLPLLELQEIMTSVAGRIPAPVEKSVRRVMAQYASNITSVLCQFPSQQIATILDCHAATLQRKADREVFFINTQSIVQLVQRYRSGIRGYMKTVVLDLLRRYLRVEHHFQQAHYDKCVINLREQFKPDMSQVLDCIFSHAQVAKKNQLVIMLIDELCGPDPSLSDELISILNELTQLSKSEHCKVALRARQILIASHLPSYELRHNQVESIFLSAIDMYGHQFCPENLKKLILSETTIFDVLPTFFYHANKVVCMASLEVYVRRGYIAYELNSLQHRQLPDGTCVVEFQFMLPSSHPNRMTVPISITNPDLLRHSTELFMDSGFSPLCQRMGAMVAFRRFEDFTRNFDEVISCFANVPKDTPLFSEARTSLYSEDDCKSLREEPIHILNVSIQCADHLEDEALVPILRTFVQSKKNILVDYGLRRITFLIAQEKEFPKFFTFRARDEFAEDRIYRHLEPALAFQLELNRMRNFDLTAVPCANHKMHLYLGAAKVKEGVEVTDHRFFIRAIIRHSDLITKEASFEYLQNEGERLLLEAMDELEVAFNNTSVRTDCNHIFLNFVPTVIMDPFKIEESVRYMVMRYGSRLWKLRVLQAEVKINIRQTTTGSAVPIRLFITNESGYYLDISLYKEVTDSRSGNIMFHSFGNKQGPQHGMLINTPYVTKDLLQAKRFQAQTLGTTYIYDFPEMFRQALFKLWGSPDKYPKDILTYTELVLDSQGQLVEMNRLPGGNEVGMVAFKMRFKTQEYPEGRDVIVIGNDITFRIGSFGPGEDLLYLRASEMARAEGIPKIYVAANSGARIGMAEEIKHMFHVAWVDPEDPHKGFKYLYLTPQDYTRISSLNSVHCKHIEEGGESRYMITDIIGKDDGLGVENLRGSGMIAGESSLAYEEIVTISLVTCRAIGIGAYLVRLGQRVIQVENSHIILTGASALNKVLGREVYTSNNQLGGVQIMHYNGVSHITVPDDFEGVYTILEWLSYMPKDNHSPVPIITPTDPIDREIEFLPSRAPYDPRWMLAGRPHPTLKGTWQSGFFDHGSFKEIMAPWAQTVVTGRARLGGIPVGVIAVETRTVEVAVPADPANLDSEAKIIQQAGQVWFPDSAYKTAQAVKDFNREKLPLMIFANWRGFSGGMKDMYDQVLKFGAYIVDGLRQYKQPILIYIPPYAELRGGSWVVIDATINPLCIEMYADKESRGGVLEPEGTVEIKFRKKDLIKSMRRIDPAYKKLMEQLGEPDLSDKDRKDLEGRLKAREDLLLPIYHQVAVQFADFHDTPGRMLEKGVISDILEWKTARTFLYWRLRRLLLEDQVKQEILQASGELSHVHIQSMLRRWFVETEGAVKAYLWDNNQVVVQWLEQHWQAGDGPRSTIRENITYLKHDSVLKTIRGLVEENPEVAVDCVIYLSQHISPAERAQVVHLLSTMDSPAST

SMILES | IC50 (Human ACC1) | IC50 (Human ACC2)
CCNC(=O)Nc1sc2ccccc2c1C(=O)N1CCC2(CC1)N=C(CSc1ccc(F)cc1)NC2=O [Compound 21, 1-ethyl-3-(3-(2-((4-fluorophenylthio)methyl)-4-oxo-1,3,8-triazaspiro[4.5]dec-1-enecarbonyl)benzo[b]thiophen-2-yl)urea] | 1 to 10 µM | 1 to 10 µM
CCNC(=O)Nc1sc2c(OC)cccc2c1C(=O)N1CCC2(CC1)N=C(C(C)C)NC2=O [Compound 16, 1-ethyl-3-(3-(2-isopropyl-4-oxo-1,3,8-triazaspiro[4.5]dec-2-enecarbonyl)-7-methoxybenzo[b]thiophen-2-yl)urea] | 1 to 10 µM | < 1 µM
CCNC(=O)Nc1sc2ccccc2c1C(=O)N1CCC2(CC1)N=C(Cn1cc(C(C)(C)C)nn1)NC2=O [Compound 36, 1-(3-(2-((4-tert-butyl-1 H-1,2,3-triazol-1-yl)methyl)-4-oxo-1,3,8-triazaspiro[4.5]dec-1-enecarbonyl)benzo[b]thiophen-2-yl)-3-ethylurea] | 1 to 10 µM | < 1 µM
CCNC(=O)Nc1sc2c(OC)cccc2c1C(=O)N1CCC2(CC1)N=C(CCC(=O)OCC)NC2=O [Compound 11, ethyl 3-(8-(2-(3-ethylureido)-7-methoxybenzo[b]thiophene-3-carbonyl)-4-oxo-1,3,8-triazaspiro[4.5]dec-1-en-2-yl)propanoate] | < 1 µM | < 1 µM
CCNC(=O)Nc1sc2ccccc2c1C(=O)N1CCC2(CC1)N=C(CS(C)(=O)=O)NC2=O [Compound 4, 1-ethyl-3-(3-(2-(methylsulfonylmethyl)-4-oxo-1,3,8-triazaspiro[4.5]dec-1-enecarbonyl)benzo[b]thiophen-2-yl)urea] | > 10 µM | 1 to 10 µM
CCNC(=O)Nc1sc2ccccc2c1C(=O)N1CCC2(CC1)N=C(Cn1cc(C3CC3)nn1)NC2=O [Compound 38, 1-(3-(2-((4-cyclopropyl-1 H-1,2,3-triazol-1-yl)methyl)-4-oxo-1,3,8-triazaspiro[4.5]dec-1-enecarbonyl)benzo[b]thiophen-2-yl)-3-ethylurea] | 1 to 10 µM | < 1 µM
CCNC(=O)Nc1sc2ccccc2c1C(=O)N1CCC2(CC1)N=C(CN1C(=O)CCC1=O)NC2=O [Compound 5, 1-(3-(2-((2,5-dioxopyrrolidin-1-yl)methyl)-4-oxo-1,3,8-triazaspiro[4.5]dec-1-enecarbonyl)benzo[b]thiophen-2-yl)-3-ethylurea] | > 10 µM | > 10 µM
CCCCN1C=NC2(CCN(C(=O)c3c(NC(=O)NCC)sc4ccccc34)CC2)C1=O [Compound 20, 1-(3-(3-butyl-4-oxo-1,3,8-triazaspiro[4.5]dec-1-enecarbonyl)benzo[b]thiophen-2-yl)-3-ethylurea] | > 10 µM | 1 to 10 µM
CCNC(=O)Nc1sc2ccccc2c1C(=O)N1CCC2(CC1)N=CNC2=O [Compound 14, 1-ethyl-3-(3-(4-oxo-1,3,8-triazaspiro[4.5]dec-1-enecarbonyl)benzo[b]thiophen-2-yl)urea] | > 10 µM | > 10 µM
CCCCC1=NC2(CCN(C(=O)c3c(NC(=O)NCC)sc4ccccc34)CC2)C(=O)N1 [Compound 15, 1-(3-(2-butyl-4-oxo-1,3,8-triazaspiro[4.5]dec-1-enecarbonyl)benzo[b]thiophen-2-yl)-3-ethylurea] | 1 to 10 µM | < 1 µM
CCNC(=O)Nc1sc2ccccc2c1C(=O)N1CCC2(CC1)N=C(CCC(=O)OCC)NC2=O [Compound 10, ethyl 3-(8-(2-(3-ethylureido)benzo[b]thiophene-3-carbonyl)-4-oxo-1,3,8-triazaspiro[4.5]dec-1-en-2-yl)propanoate] | 1 to 10 µM | 1 to 10 µM
CCCCC1=NC2(CCN(C(=O)c3c(NC(=O)NCC)sc4c(OC)cccc34)CC2)C(=O)N1 [Compound 17, 1-(3-(2-butyl-4-oxo-1,3,8-triazaspiro[4.5]dec-1-enecarbonyl)-7-methoxybenzo[b]thiophen-2-yl)-3-ethylurea] | < 1 µM | < 1 µM
CCNC(=O)Nc1sc2ccccc2c1C(=O)N1CCC2(CC1)N=C(Cn1ccccc1=O)NC2=O [Compound 33, 1-ethyl-3-(3-(4-oxo-2-((2-oxopyridin-1(2 H)-yl)methyl)-1,3,8-triazaspiro[4.5]dec-1-enecarbonyl)benzo[b]thiophen-2-yl)urea] | > 10 µM | 1 to 10 µM
CCNC(=O)Nc1sc2ccccc2c1C(=O)N1CCC2(CC1)N=C(COc1ccccc1OC)NC2=O [Compound 25, 1-ethyl-3-(3-(2-((2-methoxyphenoxy)methyl)-4-oxo-1,3,8-triazaspiro[4.5]dec-1-enecarbonyl)benzo[b]thiophen-2-yl)urea] | 1 to 10 µM | < 1 µM
CCNC(=O)Nc1sc2ccccc2c1C(=O)N1CCC2(CC1)N=C(Cn1cc(CN)nn1)NC2=O [Compound 34, 1-(3-(2-((4-(aminomethyl)-1 H-1,2,3-triazol-1-yl)methyl)-4-oxo-1,3,8-triazaspiro[4.5]dec-1-enecarbonyl)benzo[b]thiophen-2-yl)-3-ethylurea] | > 10 µM | > 10 µM
CCNC(=O)Nc1sc2ccccc2c1C(=O)N1CCC2(CC1)N=C(Cn1cc(CO)nn1)NC2=O [Compound 37, 1-ethyl-3-(3-(2-((4-(hydroxymethyl)-1 H-1,2,3-triazol-1-yl)methyl)-4-oxo-1,3,8-triazaspiro[4.5]dec-1-enecarbonyl)benzo[b]thiophen-2-yl)urea] | > 10 µM | 1 to 10 µM
CCNC(=O)Nc1sc2c(OC)cccc2c1C(=O)N1CCC2(CC1)N=C(COCC(C)C)NC2=O [Compound 31, 1-ethyl-3-(3-(2-(isobutoxymethyl)-4-oxo-1,3,8-triazaspiro[4.5]dec-1-enecarbonyl)-7-methoxybenzo[b]thiophen-2-yl)urea] | < 1 µM | < 1 µM
CCNC(=O)Nc1sc2ccccc2c1C(=O)N1CCC2(CC1)N=C(COC1CCCCC1)NC2=O [Compound 28, 1-(3-(2-(cyclohexyloxymethyl)-4-oxo-1,3,8-triazaspiro[4.5]dec-1-enecarbonyl)benzo[b]thiophen-2-yl)-3-ethylurea] | 1 to 10 µM | < 1 µM
CCNC(=O)Nc1sc2ccccc2c1C(=O)N1CCC2(CC1)N=C(CSC)NC2=O [Compound 3, 1-ethyl-3-(3-(2-(methylthiomethyl)-4-oxo-1,3,8-triazaspiro[4.5]dec-1-enecarbonyl)benzo[b]thiophen-2-yl)urea] | 1 to 10 µM | 1 to 10 µM
CCNC(=O)Nc1sc2ccccc2c1C(=O)N1CCC2(CC1)N=C(C[S+]([O-])C(C)C)NC2=O (centres unmarked) [Compound 23, 1-ethyl-3-(3-(2-(isopropylsulfinylmethyl)-4-oxo-1,3,8-triazaspiro[4.5]dec-1-enecarbonyl)benzo[b]thiophen-2-yl)urea] | > 10 µM | < 1 µM
CCNC(=O)Nc1sc2ccccc2c1C(=O)N1CCC2(CC1)N=C(COC(C)C)NC2=O [Compound 29, 1-ethyl-3-(3-(2-(isopropoxymethyl)-4-oxo-1,3,8-triazaspiro[4.5]dec-1-enecarbonyl)benzo[b]thiophen-2-yl)urea] | 1 to 10 µM | 1 to 10 µM
CCNC(=O)Nc1sc2ccccc2c1C(=O)N1CCC2(CC1)N=C(Cn1cc(CN(C)C)nn1)NC2=O [Compound 35, 1-(3-(2-((4-((dimethylamino)methyl)-1 H-1,2,3-triazol-1-yl)methyl)-4-oxo-1,3,8-triazaspiro[4.5]dec-1-enecarbonyl)benzo[b]thiophen-2-yl)-3-ethylurea] | > 10 µM | 1 to 10 µM
